24 compounds from patent US20090306133A1, “New Acetyl Coenzyme A Carboxylase (ACC) Inhibitors And Uses In Treatments Of Obesity And Diabetes Mellitus - 087” (ASTRAZENECA AB, priority 2007, published 2009) can be followed below.

Assay [1] addresses Human recombinant Acetyl-CoA Carboxylase 2 (ACC2) (Homo sapiens, UniProt O00763). Briefly: Assay Y: ACC2 inhibition, inorganic phosphate (Malachite Green). The settings on record: Assay Y: room temperature, 3 hr, 15 min preincubation. The assay is classed as biochemical. The protocol: (§1) Preincubation of 6 μL enzyme together with 0.3 μL compound for 15 min was done before the reaction was initiated by the addition of 4 μL substrate. […] After 3 hr the reaction was stopped by addition of 60 μL of water followed by 30 μL Malachite Green solution. The Malachite Green solution was prepared by mixing 16.4 mL ammonium molybdate solution (7.5%), 1.64 mL Tween (11%) with 82 mL Malachite Green/H2SO4-solution (0.7 g Malachite Green to 1000 mL of 10% (v/v) H2SO4). Plates were left for 10 min at room temperature before reading the absorbance at 670 nm. All compounds were tested in triplicate at 10 different concentrations. Control compound (0, 50 and 100% effect) was included on each plate. […] An IC50 value was derived by non-linear regression curve fitting using the following equation: […]))) where A is the non-specific binding, B is the total binding, C is the IC50 and D is the slope. Saturation binding Kd and Bmax were derived using the equation y=((B1 max*x)/(Kd+x)).

For assay [2], the target named is Human recombinant Acetyl-CoA Carboxylase 1 (ACC1) (Homo sapiens, UniProt Q13085). The experiment in a line: Assay Y: ACC1 inhibition, inorganic phosphate (Malachite Green). It is filed as biochemical. The settings on record: Assay Y: room temperature, 3 hr, 15 min preincubation. The protocol:
as §1

Human recombinant Acetyl-CoA Carboxylase 2 (ACC2), sequence (O00763 whole entry): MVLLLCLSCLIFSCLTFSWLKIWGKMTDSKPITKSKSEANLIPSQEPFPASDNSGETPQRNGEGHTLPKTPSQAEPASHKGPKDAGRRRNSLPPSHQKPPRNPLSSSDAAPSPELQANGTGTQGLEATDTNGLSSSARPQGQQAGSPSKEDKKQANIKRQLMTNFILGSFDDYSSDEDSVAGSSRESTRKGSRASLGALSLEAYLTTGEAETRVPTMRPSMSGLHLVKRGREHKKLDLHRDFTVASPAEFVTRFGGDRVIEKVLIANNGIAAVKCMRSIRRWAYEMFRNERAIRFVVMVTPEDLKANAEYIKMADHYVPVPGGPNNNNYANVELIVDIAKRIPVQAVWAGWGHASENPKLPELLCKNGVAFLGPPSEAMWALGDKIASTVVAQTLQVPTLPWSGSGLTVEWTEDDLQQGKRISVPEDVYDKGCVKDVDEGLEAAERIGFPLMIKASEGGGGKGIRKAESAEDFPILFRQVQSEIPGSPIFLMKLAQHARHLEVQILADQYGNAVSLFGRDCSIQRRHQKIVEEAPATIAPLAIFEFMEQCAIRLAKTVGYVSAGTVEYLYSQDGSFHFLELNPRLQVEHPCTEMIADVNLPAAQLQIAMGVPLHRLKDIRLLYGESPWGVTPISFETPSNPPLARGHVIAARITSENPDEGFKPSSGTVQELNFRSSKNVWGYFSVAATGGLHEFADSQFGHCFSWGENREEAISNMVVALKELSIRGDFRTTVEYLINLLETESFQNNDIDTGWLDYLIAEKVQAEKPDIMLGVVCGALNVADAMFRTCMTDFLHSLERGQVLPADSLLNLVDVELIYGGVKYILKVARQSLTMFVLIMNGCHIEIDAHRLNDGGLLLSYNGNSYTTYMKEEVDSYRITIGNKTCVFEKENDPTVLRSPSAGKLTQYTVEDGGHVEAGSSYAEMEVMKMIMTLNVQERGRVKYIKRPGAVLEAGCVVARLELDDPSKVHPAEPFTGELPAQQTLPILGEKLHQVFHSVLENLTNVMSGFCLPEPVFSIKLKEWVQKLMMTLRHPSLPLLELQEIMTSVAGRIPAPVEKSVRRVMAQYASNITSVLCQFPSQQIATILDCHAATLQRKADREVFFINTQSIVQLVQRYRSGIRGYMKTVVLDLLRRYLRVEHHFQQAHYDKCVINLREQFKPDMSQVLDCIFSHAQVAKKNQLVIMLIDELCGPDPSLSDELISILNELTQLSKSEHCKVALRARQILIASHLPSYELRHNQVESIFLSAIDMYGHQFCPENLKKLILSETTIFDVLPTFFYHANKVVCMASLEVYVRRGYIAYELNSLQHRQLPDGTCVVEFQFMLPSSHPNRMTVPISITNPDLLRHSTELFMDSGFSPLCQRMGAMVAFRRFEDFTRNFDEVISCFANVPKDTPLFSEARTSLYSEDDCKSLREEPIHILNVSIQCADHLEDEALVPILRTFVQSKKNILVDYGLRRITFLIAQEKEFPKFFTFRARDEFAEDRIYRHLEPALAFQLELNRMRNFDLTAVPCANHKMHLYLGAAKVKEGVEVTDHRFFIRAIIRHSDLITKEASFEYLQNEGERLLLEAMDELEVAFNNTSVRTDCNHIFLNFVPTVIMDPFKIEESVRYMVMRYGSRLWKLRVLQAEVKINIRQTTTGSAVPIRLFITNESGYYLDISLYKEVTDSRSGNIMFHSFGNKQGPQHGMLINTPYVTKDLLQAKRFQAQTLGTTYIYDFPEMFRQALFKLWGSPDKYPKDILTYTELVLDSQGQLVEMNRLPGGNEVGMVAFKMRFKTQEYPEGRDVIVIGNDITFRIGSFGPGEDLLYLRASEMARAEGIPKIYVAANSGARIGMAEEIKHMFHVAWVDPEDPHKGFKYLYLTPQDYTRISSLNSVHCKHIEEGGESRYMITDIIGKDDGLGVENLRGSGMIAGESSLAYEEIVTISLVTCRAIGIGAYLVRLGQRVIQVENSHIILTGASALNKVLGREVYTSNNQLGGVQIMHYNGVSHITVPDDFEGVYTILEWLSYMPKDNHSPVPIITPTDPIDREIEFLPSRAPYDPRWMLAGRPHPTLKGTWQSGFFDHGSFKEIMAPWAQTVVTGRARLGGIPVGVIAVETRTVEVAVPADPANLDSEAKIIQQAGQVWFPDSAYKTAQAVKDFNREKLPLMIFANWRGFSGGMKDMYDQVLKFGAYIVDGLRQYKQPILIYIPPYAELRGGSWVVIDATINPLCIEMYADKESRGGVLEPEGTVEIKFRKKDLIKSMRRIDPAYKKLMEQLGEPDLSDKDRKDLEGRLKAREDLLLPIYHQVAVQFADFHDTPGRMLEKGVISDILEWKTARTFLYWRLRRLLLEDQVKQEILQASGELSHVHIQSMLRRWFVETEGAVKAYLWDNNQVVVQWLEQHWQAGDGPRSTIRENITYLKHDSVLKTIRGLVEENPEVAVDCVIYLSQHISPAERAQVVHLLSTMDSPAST

As to `CN1CCN(c2ccc(-c3cc(C(=O)NC[C@H]4CC[C@H](CNC(=O)OCC5CCO5)CC4)c4ccccc4n3)cn2)CC1` (relative stereo) [Example 111, Oxetan-2-ylmethyl-[(trans-4-{[({2-[6-(4-methylpiperazin-1-yl)pyridin-3-yl]quinolin-4-yl}carbonyl)amino]methyl}cyclohexyl)methyl]carbamate], the figures for the IC50 in assay [1] and in assay [2] were 710 nM and 3180 nM, respectively.
In the case of `CN1CCN(c2ccc(-c3cc(C(=O)NC[C@H]4CC[C@H](CNC(=O)OC5CCOC5)CC4)c4ccccc4n3)cn2)CC1` (relative stereo) [Example 114, Tetrahydrofuran-3-yl-[(trans-4-{[({2-[6-(4-methylpiperazin-1-yl)pyridin-3-yl]quinolin-4-yl}carbonyl)amino]methyl}cyclohexyl)methyl]carbamate], the IC50 is 330 nM in assay [1] and 2380 nM in assay [2].
Consider `COC[C@H](C)OC(=O)NC[C@H]1CC[C@H](CNC(=O)c2cc(-c3ccc(N4CCN(C)CC4)nc3)nc3ccccc23)CC1` (stereo in doubt) [Example 112, (1S)-2-Methoxy-1-methylethyl[(trans-4-{[({2-[6-(4-methylpiperazin-1-yl)pyridin-3-yl]quinolin-4-yl}carbonyl)amino]methyl}cyclohexyl)methyl]carbamate], for which the IC50 in assay [1] was found to be 380 nM; in assay [2], 2710 nM.
Take `COC[C@@H](C)OC(=O)NC[C@H]1CC[C@H](CNC(=O)c2cc(-c3ccc(N4CCN(C)CC4)nc3)nc3ccccc23)CC1` (stereo in doubt) [Example 113, (1R)-2-Methoxy-1-methylethyl[(trans-4-{[({2-[6-(4-methylpiperazin-1-yl)pyridin-3-yl]quinolin-4-yl}carbonyl)amino]methyl}cyclohexyl)methyl]carbamate]: the IC50 is 940 nM in assay [1] and 7800 nM in assay [2].
Take `CN1CCN(c2ccc(-c3cc(C(=O)NC[C@H]4CC[C@H](CNC(=O)OC(C)(C)C)CC4)c4ccccc4n3)cn2)CC1` [Example 1, tert-butyl [(trans-4-{[({2-[6-(4-methylpiperazin-1-yl)pyridin-3-yl]quinolin-4-yl}carbonyl)amino]methyl}cyclohexyl)methyl]carbamate]: the IC50 in assay [1] is 50 nM; in assay [2] it was 200 nM.
Regarding `Cc1[nH]c(=O)ccc1-c1cc(C(=O)NC[C@H]2CC[C@H](CNC(=O)OC(C)(C)C)CC2)c2ccccc2n1` [Example 2, tert-Butyl ({trans-4-[({[2-(2-methyl-6-oxo-1,6-dihydropyridin-3-yl)quinolin-4-yl]carbonyl}amino)methyl]cyclohexyl}methyl)carbamate], the values for the IC50 in assay [1] and in assay [2] were 2960 nM and greater than 20000 nM, respectively.
For the compound `CC(C)(C)OC(=O)NC[C@H]1CC[C@H](CNC(=O)c2cc(-c3cnccn3)nc3ccccc23)CC1` [Example 3, tert-Butyl {[trans-4-({[(2-pyrazin-2-ylquinolin-4-yl)carbonyl]amino}methyl)cyclohexyl]methyl}carbamate], the IC50 in assay [1] was determined as 650 nM; in assay [2], 1520 nM.
Take `CCOc1ccc(-c2cc(C(=O)NC[C@H]3CC[C@H](CNC(=O)OC(C)(C)C)CC3)c3ccccc3n2)cc1` [Example 4, tert-Butyl ({trans-4-[({[2-(4-ethoxyphenyl)quinolin-4-yl]carbonyl}amino)methyl]-cyclohexyl}methyl)carbamate]: the figures for the IC50 in assay [1] and in assay [2] were 390 nM and 1330 nM, respectively.
In the case of `CC(C)(C)OC(=O)NC[C@H]1CC[C@H](CNC(=O)c2cc(-c3ccc(C(N)=O)nc3)nc3ccccc23)CC1` [Example 5, tert-Butyl ({trans-4-[({[2-(6-carbamoylpyridin-3-yl)quinolin-4-yl]carbonyl}amino)-methyl]cyclohexyl}methyl)carbamate], the IC50 worked out at 260 nM in assay [1] and 1220 nM in assay [2].
`CC(C)(C)OC(=O)NC[C@H]1CC[C@H](CNC(=O)c2cc(-c3ccccc3)nc3ccccc23)CC1` [Example 6, tert-butyl {[trans-4-({[(2-phenylquinolin-4-yl)carbonyl]amino}methyl)cyclohexyl]methyl}carbamate]: the IC50 in assay [1] is 240 nM; in assay [2] it was 560 nM.
Consider `CC(C)(C)OC(=O)NC[C@H]1CC[C@H](CNC(=O)c2cc(-c3ccncc3)nc3ccccc23)CC1` [Example 7, tert-butyl {[trans-4-({[(2-pyridin-4-ylquinolin-4-yl)carbonyl]amino}methyl)cyclohexyl]methyl}-carbamate], for which the IC50 in assay [1] turned out to be 210 nM; in assay [2], 1030 nM.
In the case of `CC(C)(C)OC(=O)NC[C@H]1CC[C@H](CNC(=O)c2cc(-c3cccc(C(N)=O)c3)nc3ccccc23)CC1` [Example 8, tert-Butyl ({trans-4-[({[2-(3-carbamoylphenyl)quinolin-4-yl]carbonyl}amino)methyl]-cyclohexyl}methyl)carbamate], the IC50 in assay [1] turned out to be 80 nM; in assay [2], 310 nM.
Regarding `CC(C)(C)OC(=O)NC[C@H]1CC[C@H](CNC(=O)c2cc(-c3ccc(C(N)=O)cc3)nc3ccccc23)CC1` [Example 9, tert-butyl ({trans-4-[({[2-(4-carbamoylphenyl)quinolin-4-yl]carbonyl}amino)methyl]cyclohexyl}methyl)carbamate], the IC50 amounted to 40 nM in assay [1] and 250 nM in assay [2].
In the case of `CN(C)CCCOc1ccc(-c2cc(C(=O)NC[C@H]3CC[C@H](CNC(=O)OC(C)(C)C)CC3)c3ccccc3n2)cn1` [Example 10, tert-Butyl {[trans-4-({[(2-{6-[3-(dimethylamino)propoxy]pyridin-3-yl}quinolin-4-yl)carbonyl]amino}methyl)cyclohexyl]methyl}carbamate], the IC50 in assay [1] worked out at 40 nM; in assay [2], 300 nM.
Consider `CN(C)c1ccc(-c2cc(C(=O)NC[C@H]3CC[C@H](CNC(=O)OC(C)(C)C)CC3)c3ccccc3n2)cn1` [Example 11, tert-Butyl [(trans-4-{[({2-[6-(dimethylamino)pyridin-3-yl]quinolin-4-yl}carbonyl)-amino]methyl}cyclohexyl)methyl]carbamate], for which the IC50 in assay [1] was found to be 100 nM; in assay [2] it was 1220 nM.
As to `CC(C)(C)OC(=O)NC[C@H]1CC[C@H](CNC(=O)c2cc(-c3ccc(C(F)(F)F)cc3)nc3ccccc23)CC1` [Example 12, tert-Butyl [(trans-4-{[({2-[4-(trifluoromethyl)phenyl]quinolin-4-yl}carbonyl)amino]-methyl}cyclohexyl)methyl]carbamate], the IC50 in assay [1] is 560 nM; in assay [2] it was greater than 20000 nM.
Turning to `CC(=O)c1ccc(-c2cc(C(=O)NC[C@H]3CC[C@H](CNC(=O)OC(C)(C)C)CC3)c3ccccc3n2)s1` [Example 13, tert-Butyl ({trans-4-[({[2-(5-acetyl-2-thienyl)quinolin-4-yl]carbonyl}amino)methyl]-cyclohexyl}methyl)carbamate], the IC50 in assay [1] amounted to 160 nM; in assay [2], 450 nM.
With `CC(C)(C)OC(=O)NC[C@H]1CC[C@H](CNC(=O)c2cc(-c3ccc(F)cc3)nc3ccccc23)CC1` [Example 14, tert-Butyl ({trans-4-[({[2-(4-fluorophenyl)quinolin-4-yl]carbonyl}amino)methyl]-cyclohexyl}methyl)carbamate], the IC50 in assay [1] is 180 nM; in assay [2] it was 690 nM.
Turning to `Cc1noc(C)c1-c1cc(C(=O)NC[C@H]2CC[C@H](CNC(=O)OC(C)(C)C)CC2)c2ccccc2n1` [Example 15, tert-Butyl ({trans-4-[({[2-(3,5-dimethylisoxazol-4-yl)quinolin-4-yl]carbonyl}amino)-methyl]cyclohexyl}methyl)carbamate], the values for the IC50 in assay [1] and in assay [2] were 2870 nM and greater than 20000 nM, respectively.
`CC(C)(C)OC(=O)NC[C@H]1CC[C@H](CNC(=O)c2cc(-c3cccnc3)nc3ccccc23)CC1` [Example 16, tert-Butyl {[trans-4-({[(2-pyridin-3-ylquinolin-4-yl)carbonyl]amino}methyl)cyclo-hexyl]methyl}carbamate]: the IC50 in assay [1] amounted to 320 nM; in assay [2], 2030 nM.
In the case of `CCOC(=O)NC[C@H]1CC[C@H](CNC(=O)c2cc(-c3ccc(F)cc3)nc3ccccc23)CC1` [Example 17, Ethyl ({trans-4-[({[2-(4-fluorophenyl)quinolin-4-yl]carbonyl}amino)methyl]cyclo-hexyl}methyl)carbamate], the IC50 in assay [1] is 1940 nM; in assay [2], greater than 20000 nM.
`CCOC(=O)NC[C@H]1CC[C@H](CNC(=O)c2cc(-c3ccc(C(=O)N(C)C)cc3)nc3ccccc23)CC1` [Example 18, Ethyl [(trans-4-{[({2-[4-(dimethylcarbamoyl)phenyl]quinolin-4-yl}carbonyl)amino]-methyl}cyclohexyl)methyl]carbamate]: the IC50 amounted to 1800 nM in assay [1] and 4850 nM in assay [2].
`CCOC(=O)NC[C@H]1CC[C@H](CNC(=O)c2cc(-c3cccc(C(N)=O)c3)nc3ccccc23)CC1` [Example 19, Ethyl ({trans-4-[({[2-(3-carbamoylphenyl)quinolin-4-yl]carbonyl}amino)methyl]-cyclohexyl}methyl)carbamate]: the IC50 in assay [1] is 780 nM; in assay [2] it was 1210 nM.
For `CC(C)(C)OC(=O)NC[C@H]1CC[C@H](CNS(=O)(=O)c2ccc3c(c2)OCCO3)CC1` [Example 69, tert-Butyl [(trans-4-{[(2,3-dihydro-1,4-benzodioxin-6-ylsulfonyl)amino]methyl}cyclo-hexyl)methyl]carbamate], the IC50 in assay [1] came out at 4760 nM.

The IC50 is the point on the concentration scale where inhibition reaches its midpoint.
